Test results reported in US4140767A, “Somatostatin analogs” (Merck & Co., Inc., priority 1977, dated 1979).

Legend:
Rat pituicytes = experiment: Growth hormone inhibition in vitro; assay type: cell-based; conditions: rat pituicytes after 4 days in culture, 4 hours incubation; somatostatin = 1; range in brackets
Procedure: Rat pituicytes were isolated according to the procedures of Vale and Grant "In vitro Pituitary Hormone Secretion Assay for Hypophysiotropic Substances" in Methods in Enzymology. Vo. XXXVII, eds. O'Malley, B. W. and Hardman, J. G. (Academic Press, Inc., New York) pp. 5-93 (1975).
After 4 days in culture, the cells were washed and incubated for 4 hours in Dulbecco-modified Eagle's medium in the presence or absence of graded doses of each analog or somatostatin. The medium was then collected for subsequent growth hormone determination by a double antibody radioimmunoassay for rat growth hormone.
(§1) Doses were randomized between groups of animals (6 rats/group). Potency values were determined by four, six, or 8 point bioassays with somatostatin as the reference standard. Relative potency values were calculated by a relative potency formula for parallel line bioassays as described in Finney, D. J. Statistical Method in Biological Assay (Charles Griffin and Co., Ltd., London) Chap. 4 pp. 99-138 (1964).

plasma glucagon = experiment: Inhibition of glucagon: lowering of portal vein glucagon in anesthetized rats; assay type: in vivo, rat; conditions: anesthetized male Sprague-Dawley rats, external jugular vein administration, portal vein blood after 5 minutes; somatostatin = 1; range in brackets
Procedure: (§2) The relative potencies of somatostatin analogs on the lowering of plasma insulin and glucagon are determined by the following method:
(§3) Analogs of somatostatin were […] to somatostatin in their ability to lower the levels of portal vein glucagon and insulin in anesthetized rats. Male Sprague-Dawley rats (Charles River CD) weighing 160-200 grams were anesthetized with urethane (150 mg./100 gm.) Saline or peptides were administered via the external jugular vein. After 5 minutes the portal vein was exposed and blood was collected via syringes containing 3 mg. EDTA and placed in chilled tubes containing 100 μl. of Trasylol (obtained from FBA Pharmaceuticals) for subsequent hormone analysis. Plasma levels of glucagon were determined by the method of Faloona, G. R., and Unger, R. H. "Glucagon" in Methods of Hormone Radioimmunoassay, eds. […] Plasma levels of insulin were determined by a modification of the procedure of Herbert, V., Lau, K. S., Gottlieb, C. […]
as §1, with “4 pp. 99-138 (1964).” left out

growth hormone release = experiment: Inhibition of pentobarbital stimulated growth hormone release in vivo; parameters: species or system rat; conditions: rats, sodium pentobarbitol 17 mg./Kg., analog subcutaneously, blood after 15 minutes; somatostatin = 1; range in brackets
Procedure: Somatostatin analogs were compared to somatostain in their ability to inhibit the release of growth hormone in pentobarbital stimulated rats; a modification of the procedure of Brazeau et al. Endocrinology, 94, 184-187 (1974) was empaloyed. Rats were lightly etherized and sodium pentobarbitol (17 mg./Kg.) was injected into the exposed Saphenous vein; somatostatin or analog was simultaneously injected subcutaneously. After 15 minutes the animals were bled via the orbital sinus and blood collected for subsequent growth hormone analysis.
as §1

plasma insulin = experiment: Inhibition of insulin: lowering of portal vein insulin in anesthetized rats; assay type: in vivo, rat; conditions: anesthetized male Sprague-Dawley rats, external jugular vein administration, portal vein blood after 5 minutes; somatostatin = 1; range in brackets
Procedure: as §2, §3
as §1, with “4 pp. 99-138 (1964).” left out

C[C@H](N)C(=O)NCC(=O)N[C@H]1CSSC[C@@H](C(=O)O)NC(=O)[C@H](CO)NC(=O)[C@H]([C@@H](C)O)NC(=O)[C@H](Cc2ccccc2)NC(=O)[C@H]([C@@H](C)O)NC(=O)[C@H](CCCCN)NC(=O)[C@H](Cc2c[nH]c3ccccc23)NC(=O)[C@H](Cc2ccccc2)NC(=O)[C@H](Cc2ccccc2)NC(=O)[C@H](CC(N)=O)NC(=O)[C@H](CCCCN)NC1=O [Somatostatin]
1: Growth Hormone Inhibition In Vitro; potency relative to somatostatin (Rat pituicytes) | Inhibition of Glucagon; potency relative to somatostatin (plasma glucagon) | Inhibition of Pentobarbital Stimulated Growth Hormone Release In Vivo; potency relative to somatostatin (growth hormone release) | Inhibition of Insulin; potency relative to somatostatin (plasma insulin)
